# Experimental data taken from patent US10472347B2, “Aminopyrazine compounds with A2A antagonist properties” (Merck Sharp & Dohme Corp., priority 2014, dated 2019).
# Target: T1, human A2a receptor (Homo sapiens, UniProt P29274)
# T1 construct: purchased Perkin-Elmer RBHA2AM400UA; host or cells: HEK293 cells (membranes)
# Assay: A2a competition binding assay, Scintillation Proximity technology
# Conditions: membranes from HEK293 cells expressing human A2a receptor; 0.5 nM tritiated ligand
# Description: Binding affinities of compounds of the invention for the human A2a receptor were determined in a competition binding assay using Scintillation Proximity technology. Thus, […] from HEK293 cells expressing the human A2a receptor were incubated with a compound of the invention at concentrations ranging from 3000 nM to 0.15 nM in a reaction mixture containing also 0.5 nM of a tritiated form of 5-amino-7-[2-phenethyl]-2-(furan-2-yl)-7H-pyrazolo[4,3-e][1,2,4]triazolo[1,5-c]pyrimidine (the tritiated compound) and 100 μg of wheat germ agglutin-coated yttrium silicate SPA beads for one hour at room temperature with agitation. The beads were then allowed to settle to the bottom of the wells for 1 hr, after which the membrane-associated radioactivity was determined by scintillation counting in a TopCount microplate reader. Ki values were determined using the Cheng-Prusoff equation.
# HEK293 cells expressing the human, rat, dog or monkey adenosine 2a receptor (Purchased from Perkin-Elmer # RBHA2AM400UA).
# The Tritiated compound was prepared in-house by MRL Radiochemistry according to published methods.
# Wheat germ agglutinin-coated yttrium silicate SPA beads (GE Healthcare #RPNQ0023). Dilute to 25 mg/ml in assay buffer.
# Assay Buffer was prepared in house: Dulbecco's calcium and magnesium free phosphate buffered saline+10 mM MgCl2
# Adenosine deaminase from calf intestine, 10 mg/2 ml (Roche #10 102 105 001).
# A2a antagonist standard (9-chloro-1-(2-furanyl)-[1,2,4]triazolo1,5-c]quinazolin-5-amine from Tocris Bioscience)
# Make eight 1:3 serial dilutions in 100% DMSO from a 3 mM compound stock
# Transfer 50 nl of compound into a 384-well OptiPlate (Perkin Elmer).
# Typically, final concentrations of compound used in the assay ranged from 3000 nM to 0.152 nM.
# Dilute a solution of the Tritiated compound to 1.25 nM in assay buffer. This is a 2.5× solution. The final concentration in the assay is 0.5 nM. Calculate the concentration by counting two 5 μl aliquots.
# Use 0.25 ug of membrane/well. Dilute membranes to 9.7 μg/ml in assay buffer. Treat with 20 ug/ml adenosine deaminase (ADA) for 15 minutes at room temperature to degrade endogenous adenosine.
# Use 100 μg/well wheat germ agglutinin-coated yttrium silicate SPA beads.
# Mix ADA-treated membranes and SPA beads together for 30 min prior to assay.
# To the Perkin-Elmer Optiplate-384 containing the compound titration add 20 μl of 2.5× solution of the Tritiated compound and 30 μl of the membrane-bead mixture. Incubate for one hour at room temperature with agitation.
# Include total binding (assay buffer+1% DMSO) and non-specific binding (CGS15943, 1 μM) wells.
# Allow the beads to settle for one hour.
# A curve fitting program (i.e., Prism, Activity Base, Chemcart) is used to determine the EC50. The Ki value is calculated using the Cheng-Prusoff equation. Ki=EC50/(1+(radioligand concentration/Kd))
# T1 sequence (P29274 whole entry): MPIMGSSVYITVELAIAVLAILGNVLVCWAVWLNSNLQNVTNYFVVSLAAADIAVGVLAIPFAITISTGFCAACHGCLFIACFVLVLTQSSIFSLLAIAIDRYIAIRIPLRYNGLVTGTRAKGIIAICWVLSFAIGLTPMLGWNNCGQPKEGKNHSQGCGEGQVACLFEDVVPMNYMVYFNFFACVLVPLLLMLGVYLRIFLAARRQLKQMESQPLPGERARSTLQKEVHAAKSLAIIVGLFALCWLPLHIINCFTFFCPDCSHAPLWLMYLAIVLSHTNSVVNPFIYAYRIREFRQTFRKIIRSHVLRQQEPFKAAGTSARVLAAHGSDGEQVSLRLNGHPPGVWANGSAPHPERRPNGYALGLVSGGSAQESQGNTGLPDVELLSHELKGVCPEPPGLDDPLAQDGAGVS
row,EC50 [nM],Compound
1,4,"Cc1nc(C(=O)N[C@@H]2CCc3cccnc32)c(N)nc1-c1ncco1 (single isomer, unassigned) [Ex-1A]"
2,2.9,"Cc1nc(C(=O)N[C@H]2CCc3cccnc32)c(N)nc1-c1ncco1 (single isomer, unassigned) [Ex-1B]"

# Same assay, conditions: membranes from HEK293 cells expressing human A2a receptor; Ki by Cheng-Prusoff equation
row,Compound,Ki [nM]
1,"Cc1nc(C(=O)NC(C)c2ccccn2)c(N)nc1-c1ncco1 (single isomer, unassigned) [Ex-82A, 3-amino-6-methyl-5-(1,3-oxazol-2-yl)-N-(1-pyridin-2-ylethyl)pyrazine-2-carboxamide]",2.48
2,"Cc1nc(C(=O)NC(C)c2ccccn2)c(N)nc1-c1ncco1 (single isomer, unassigned) [Ex-82B, 3-amino-6-methyl-5-(1,3-oxazol-2-yl)-N-(1-pyridin-2-ylethyl)pyrazine-2-carboxamide]",43.5
3,"Cc1nc(C(=O)NC2CCCc3cnccc32)c(N)nc1-c1ncco1 (single isomer, unassigned) [Ex-84A, 3-amino-6-methyl-5-(1,3-oxazol-2-yl)-N-(5,6,7,8-tetrahydroisoquinolin-5-yl)pyrazine-2-carboxamide]",280
4,"Cc1nc(C(=O)NC2CCCc3cnccc32)c(N)nc1-c1ncco1 (single isomer, unassigned) [Ex-84B, 3-amino-6-methyl-5-(1,3-oxazol-2-yl)-N-(5,6,7,8-tetrahydroisoquinolin-5-yl)pyrazine-2-carboxamide]",245
5,"CCC(NC(=O)c1nc(C)c(-c2ncco2)nc1N)c1ccccn1 (single isomer, unassigned) [Ex-94A, 3-amino-6-methyl-5-(1,3-oxazol-2-yl)-N-(1-pyridin-2-ylpropyl)pyrazine-2-carboxamide]",8.7
6,"CCC(NC(=O)c1nc(C)c(-c2ncco2)nc1N)c1ccccn1 (single isomer, unassigned) [Ex-94B, 3-amino-6-methyl-5-(1,3-oxazol-2-yl)-N-(1-pyridin-2-ylpropyl)pyrazine-2-carboxamide]",138
7,"Cc1nc(C(=O)NC2CCCC(O)CC2)c(N)nc1-c1ncco1 (single isomer, unassigned) [Ex-165A, 3-amino-N-(4-hydroxycycloheptyl)-6-methyl-5-(1,3-oxazol-2-yl)pyrazine-2-carboxamide]",13.1
8,"Cc1nc(C(=O)NC2CCCC(O)CC2)c(N)nc1-c1ncco1 (single isomer, unassigned) [Ex-165B, 3-amino-N-(4-hydroxycycloheptyl)-6-methyl-5-(1,3-oxazol-2-yl)pyrazine-2-carboxamide]",2.12
9,"Cc1nc(C(=O)NC2CCCC(O)CC2)c(N)nc1-c1ncco1 (single isomer, unassigned) [Ex-165C, 3-amino-N-(4-hydroxycycloheptyl)-6-methyl-5-(1,3-oxazol-2-yl)pyrazine-2-carboxamide]",7.64
10,"Cc1nc(C(=O)NC2CCCC(O)CC2)c(N)nc1-c1ncco1 (single isomer, unassigned) [Ex-165D, 3-amino-N-(4-hydroxycycloheptyl)-6-methyl-5-(1,3-oxazol-2-yl)pyrazine-2-carboxamide]",9.34
11,"Cc1nc(C(=O)NC2CCCC2(F)F)c(N)nc1-c1ncco1 (single isomer, unassigned) [Ex-191A, 3-amino-N-(2,2-difluorocyclopentyl)-6-methyl-5-(1,3-oxazol-2-yl)pyrazine-2-carboxamide]",1.33
12,"Cc1nc(C(=O)NC2CCCC2(F)F)c(N)nc1-c1ncco1 (single isomer, unassigned) [Ex-191B, 3-amino-N-(2,2-difluorocyclopentyl)-6-methyl-5-(1,3-oxazol-2-yl)pyrazine-2-carboxamide]",2.56
13,"Cc1nc(C(=O)NC2CCCc3cccnc32)c(N)nc1-c1ncco1 (single isomer, unassigned) [Ex-230A, 3-amino-6-methyl-5-(1,3-oxazol-2-yl)-N-(5,6,7,8-tetrahydroquinolin-8-yl)pyrazine-2-carboxamide]",3.74
14,"Cc1nc(C(=O)NC2CCOc3ccccc32)c(N)nc1-c1ncco1 (stereo in doubt) [Ex-145, 3-amino-N-[(4R)-3,4-dihydro-2H-chromen-44-yl]-6-methyl-5-(1,3-oxazol-2-yl)pyrazine-2-carboxamide]",4.22
15,"Cc1nc(C(=O)NC2CCOc3ccccc32)c(N)nc1-c1ncco1 (stereo in doubt) [Ex-146, 3-amino-N-[(4S)-3,4-dihydro-2H-chromen-4-yl]-6-methyl-5-(1,3-oxazol-2-yl)pyrazine-2-carboxamide]",5.57
16,"COC[C@H]1CCC[C@H]1NC(=O)c1nc(C)c(-c2ncco2)nc1N (stereo in doubt) [Ex-171, 3-amino-N-[(1R,2S)-2-(methoxymethyl)cyclopentyl]-6-methyl-5-(1,3-oxazol-2-yl)pyrazine-2-carboxamide]",1.03

# More lines, now with the values ahead:
row,Ki [nM],Compound
1,0.762,"Cc1nc(C(=O)NC2CCCc3cccnc32)c(N)nc1-c1ncco1 (single isomer, unassigned) [Ex-230B, 3-amino-6-methyl-5-(1,3-oxazol-2-yl)-N-(5,6,7,8-tetrahydroquinolin-8-yl)pyrazine-2-carboxamide]"
2,29.2,"COc1ccc2c(c1)CCC2NC(=O)c1nc(C)c(-c2ncco2)nc1N (single isomer, unassigned) [Ex-231A, 3-amino-N-(5-methoxy-2,3-dihydro-1H-inden-1-yl)-6-methyl-5-(1,3-oxazol-2-yl)pyrazine-2-carrboxamide]"
3,10.5,"COc1ccc2c(c1)CCC2NC(=O)c1nc(C)c(-c2ncco2)nc1N (single isomer, unassigned) [Ex-231B, 3-amino-N-(5-methoxy-2,3-dihydro-1H-inden-1-yl)-6-methyl-5-(1,3-oxazol-2-yl)pyrazine-2-carboxamide]"
4,1.15,"Cc1nc(C(=O)NC2CCc3ccccc3C2)c(N)nc1-c1ncco1 (single isomer, unassigned) [Ex-233A, 3-amino-6-methyl-5-(1,3-oxazol-2-yl)-N-(1,2,3,4-tetrahydronaphthalen-2-yl)pyrazine-2-carboxamide]"
5,0.572,"Cc1nc(C(=O)NC2CCc3ccccc3C2)c(N)nc1-c1ncco1 (single isomer, unassigned) [Ex-233B, 3-amino-6-methyl-5-(1,3-oxazol-2-yl)-N-(1,2,3,4-tetrahydronaphthalen-2-yl)pyrazine-2-carboxamide]"
6,5.51,"Cc1nc(C(=O)NC2c3ncccc3CC2O)c(N)nc1-c1ncco1 (single isomer, unassigned) [Ex-238A, 3-amino-N-(6-hydroxy-6,7-dihydro-5H-cyclopenta[b]pyridin-7-yl)-6-methyl-5-(1,3-oxazol-2-yl)pyrazine-2-carboxamide]"
7,0.94,"Cc1nc(C(=O)NC2c3ncccc3CC2O)c(N)nc1-c1ncco1 (single isomer, unassigned) [Ex-238B, 3-amino-N-(6-hydroxy-6,7-dihydro-5H-cyclopenta[b]pyridin-7-yl)-6-methyl-5-(1,3-oxazol-2-yl)pyrazine-2-carboxamide]"
8,0.22,"Cc1nc(C(=O)NC2CCc3c(Cl)ccnc32)c(N)nc1-c1ncco1 (single isomer, unassigned) [Ex-244A, 3-amino-N-(4-chloro-6,7-dihydro-5H-cyclopenta[b]pyridin-7-yl)-6-methyl-5-(1,3-oxazol-2-yl)pyrazine-2-carboxamide]"
9,1.28,"Cc1nc(C(=O)NC2CCc3c(Cl)ccnc32)c(N)nc1-c1ncco1 (single isomer, unassigned) [Ex-244B, 3-amino-N-(4-chloro-6,7-dihydro-5H-cyclopenta[b]pyridin-7-yl)-6-methyl-5-(1,3-oxazol-2-yl)pyrazine-2-carboxamide]"
10,6.69,"Cc1nc(C(=O)NC2CCc3ccc(Cl)nc32)c(N)nc1-c1ncco1 (single isomer, unassigned) [Ex-245A, 3-amino-N-(2-chloro-6,7-dihydro-5H-cyclopenta[b]pyridin-7-yl)-6-methyl-5-(1,3-oxazol-2-yl)pyrazine-2-carboxamide]"
11,4.39,"Cc1nc(C(=O)NC2CCc3ccc(Cl)nc32)c(N)nc1-c1ncco1 (single isomer, unassigned) [Ex-245B, 3-amino-N-(2-chloro-6,7-dihydro-5H-cyclopenta[b]pyridin-7-yl)-6-methyl-5-(1,3-oxazol-2-yl)pyrazine-2-carboxamide]"
